{"source": "patent US11160796B2", "about": "“Anti-androgens for the treatment of non-metastatic castration-resistant prostate cancer” (priority 2017, dated 2021)", "key": {"[1]": {"assay": "Incubation with liver S9 fraction and liver microsomes", "type": "in vitro ADME", "conditions": "incubated for up to 120 minutes; rat, dog, and human", "source_text": "The primary in vivo metabolites were formed by N-demethylation and amide hydrolysis in the rat and dog."}, "Plasma protein binding": {"assay": "Plasma protein binding", "conditions": "plasma"}, "CYP3A4": {"target": "T1, CYP3A4 (Homo sapiens, UniProt P08684)", "T1 construct": "from tissue; host or cells: human subjects, in vivo (clinical pharmacology)", "T1 sequence (P08684 whole entry)": "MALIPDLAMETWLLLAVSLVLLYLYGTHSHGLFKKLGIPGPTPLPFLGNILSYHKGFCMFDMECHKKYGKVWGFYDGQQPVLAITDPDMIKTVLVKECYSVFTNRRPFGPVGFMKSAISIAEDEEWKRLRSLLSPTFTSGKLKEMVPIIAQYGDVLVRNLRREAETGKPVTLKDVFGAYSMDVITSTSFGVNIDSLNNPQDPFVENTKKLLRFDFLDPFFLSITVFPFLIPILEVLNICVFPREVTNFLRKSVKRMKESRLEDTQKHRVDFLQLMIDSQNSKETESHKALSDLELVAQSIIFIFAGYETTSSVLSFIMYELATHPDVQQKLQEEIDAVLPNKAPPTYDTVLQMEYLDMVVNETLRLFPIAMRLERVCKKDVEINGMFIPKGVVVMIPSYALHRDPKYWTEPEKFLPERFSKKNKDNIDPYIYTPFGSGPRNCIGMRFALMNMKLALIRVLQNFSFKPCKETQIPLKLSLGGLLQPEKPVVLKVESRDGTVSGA", "assay": "Contribution of CYP3A4 in the metabolism of apalutamide", "type": "in vivo", "conditions": "estimated"}, "[2]": {"tested_on": "BCRP, OATP1B1, and OATP1B3", "conditions": "not told"}, "[3]": {"tested_on": "non-metastatic castration-resistant prostate cancer (NM-CRPC)", "assay": "Phase III study (SPARTAN, Study 1): efficacy", "type": "in vivo, human", "conditions": "for Metastasis Free Survival (MFS), median: 240 mg once daily + ADT, ITT, BICR", "source_text": "The study consisted of a Screening Phase of up to 35 days before randomization to establish eligibility and document baseline measurements, a double-blind Treatment Phase (28-day treatment cycles; continuous dosing), and a Long-term Follow-up Phase to monitor PFS, survival status, subsequent prostate cancer therapy, PRO, and MRU. […] The randomization was stratified as follows: • PSADT: <6 months vs. >6 months; • Bone-sparing agent use: Yes vs. No; and • Loco-regional disease: N0 vs. N1 (ie, nodal disease).\nAll patients who were not surgically castrated received ADT continuously throughout the study. […] Systemic corticosteroids were not allowed at study entry. […] Patients randomized to either arm were to continue treatment until disease progression defined by blinded central imaging review (BICR), initiation of new treatment, unacceptable toxicity or withdrawal.\nWith the softgel capsules only, subjects could switch to a twice daily dosing regimen (4 tables each period) if gastrointestinal issues arose with the once daily schedule. […] For the purposes of this study, a treatment cycle consisted of 4 weeks (28 days).\nThe primary efficacy endpoint was metastasis-free survival (MFS), defined as the time from randomization to the time of first evidence of BICR-confirmed bone or soft tissue distant metastasis or death due to any cause, whichever occurred first. Metastasis-free survival data for subjects without metastasis or death were censored on the date of the last tumor assessment (or, if no tumor assessment was performed after the baseline visit, at the date of randomization). Censoring rules based on FDA and CHMP guidance were applied for analyses of MFS (referred to in the text as US censoring or ex-US censoring).\nPatients were stratified by Prostate Specific Antigen (PSA) Doubling Time (PSADT), the use of bone-sparing agents, and locoregional disease. Patients were required to have a PSADT≤10 months and confirmation of non-metastatic disease by blinded independent central review (BICR).\nThe major efficacy outcome measure of the study was metastasis-free survival (MFS), defined as the time from randomization to the time of first evidence of BICR-confirmed distant metastasis, defined as new bone or soft tissue lesions or enlarged lymph nodes above the iliac bifurcation, or death due to any cause, whichever occurred first. Additional efficacy endpoints were time to metastasis (TTM), progression-free survival (PFS) which also includes locoregional progression, time to symptomatic progression, and overall survival (OS)."}, "[4]": {"assay": "In vitro chromosome aberration test", "type": "cell-based"}, "[5]": {"tested_on": "organic cation transporter 2 (OCT2), organic anion transporter 3 (OAT3) and multidrug and toxin extrusions (MATEs)", "assay": "In vitro transporter inhibition: OCT2, OAT3, MATEs", "type": "in vitro ADME"}, "[6]": {"assay": "Bacterial reverse mutation (Ames) assay"}, "[7]": {"assay": "Single-dose and repeat-dose toxicology studies in male rats", "source_text": "(§1) Single-dose and repeat-dose toxicology studies up to 13 weeks of dosing have been conducted in male Sprague Dawley (SD) rats and male Beagle dogs (repeat-dose studies only)."}, "P-gp": {"target": "P-gp (Homo sapiens, UniProt P08183)", "sequence (P08183 whole entry)": "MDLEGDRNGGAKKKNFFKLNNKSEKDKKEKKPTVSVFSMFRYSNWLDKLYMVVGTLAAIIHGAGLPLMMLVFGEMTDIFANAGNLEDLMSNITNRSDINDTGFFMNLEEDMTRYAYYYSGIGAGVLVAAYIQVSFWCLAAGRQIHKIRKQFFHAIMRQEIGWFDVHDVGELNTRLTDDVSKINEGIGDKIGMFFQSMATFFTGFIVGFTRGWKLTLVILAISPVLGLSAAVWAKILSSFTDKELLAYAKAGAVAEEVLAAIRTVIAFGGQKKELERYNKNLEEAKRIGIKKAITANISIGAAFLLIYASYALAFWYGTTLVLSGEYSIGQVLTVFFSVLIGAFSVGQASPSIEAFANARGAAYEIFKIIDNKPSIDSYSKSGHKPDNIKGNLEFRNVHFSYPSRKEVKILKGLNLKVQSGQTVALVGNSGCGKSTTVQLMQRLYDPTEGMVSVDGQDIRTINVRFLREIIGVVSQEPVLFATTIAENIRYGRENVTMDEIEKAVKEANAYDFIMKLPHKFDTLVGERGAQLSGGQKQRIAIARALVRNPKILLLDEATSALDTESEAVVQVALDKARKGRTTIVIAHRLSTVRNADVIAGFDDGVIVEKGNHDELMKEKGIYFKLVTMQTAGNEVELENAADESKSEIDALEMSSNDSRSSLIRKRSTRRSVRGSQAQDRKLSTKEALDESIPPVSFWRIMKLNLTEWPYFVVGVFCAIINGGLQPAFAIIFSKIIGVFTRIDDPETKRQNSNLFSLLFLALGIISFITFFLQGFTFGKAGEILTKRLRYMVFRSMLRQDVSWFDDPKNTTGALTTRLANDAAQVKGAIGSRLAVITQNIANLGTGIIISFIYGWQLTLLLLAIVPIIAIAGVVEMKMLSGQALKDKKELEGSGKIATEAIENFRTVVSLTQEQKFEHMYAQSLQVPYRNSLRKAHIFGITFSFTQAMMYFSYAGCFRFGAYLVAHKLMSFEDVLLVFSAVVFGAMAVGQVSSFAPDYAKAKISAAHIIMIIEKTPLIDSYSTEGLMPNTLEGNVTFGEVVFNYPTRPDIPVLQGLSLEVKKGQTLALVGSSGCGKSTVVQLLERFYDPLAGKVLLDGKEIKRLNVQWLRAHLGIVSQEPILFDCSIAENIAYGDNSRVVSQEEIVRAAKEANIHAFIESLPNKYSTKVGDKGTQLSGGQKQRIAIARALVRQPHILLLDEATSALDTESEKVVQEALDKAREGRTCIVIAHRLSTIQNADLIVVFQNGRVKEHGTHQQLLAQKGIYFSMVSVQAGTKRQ", "assay": "In vitro transporter substrate assessment: P-gp"}, "[8]": {"tested_on": "castration-resistant LNCaP/AR-Luc xenograft model", "conditions": "non-castrate hormone-sensitive and bicalutamide-resistant models (Clegg et al.); cited from earlier work"}, "[9]": {"target": "T2, human cytochrome P450 isoform CYP2C8 (Homo sapiens, UniProt P10632)", "T2 sequence (P10632 1-490)": "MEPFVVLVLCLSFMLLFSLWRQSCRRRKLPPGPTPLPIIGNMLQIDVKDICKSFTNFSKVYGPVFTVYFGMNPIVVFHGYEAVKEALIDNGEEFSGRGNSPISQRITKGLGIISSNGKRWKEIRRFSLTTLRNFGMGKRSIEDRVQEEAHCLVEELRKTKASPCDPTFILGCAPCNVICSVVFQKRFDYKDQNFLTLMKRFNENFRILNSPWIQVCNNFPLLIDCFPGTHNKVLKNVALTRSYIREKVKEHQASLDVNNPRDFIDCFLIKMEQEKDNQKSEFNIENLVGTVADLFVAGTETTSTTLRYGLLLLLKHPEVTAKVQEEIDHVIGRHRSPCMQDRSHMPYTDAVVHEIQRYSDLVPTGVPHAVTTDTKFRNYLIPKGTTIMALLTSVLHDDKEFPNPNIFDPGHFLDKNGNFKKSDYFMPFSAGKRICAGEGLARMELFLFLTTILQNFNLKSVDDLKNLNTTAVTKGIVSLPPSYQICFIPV", "assay": "Cytochrome P450 inhibition: CYP2C8", "type": "in vitro ADME"}, "CYP2C8": {"target": "T3, CYP2C8 (Homo sapiens, UniProt P10632)", "T3 construct": "from tissue; host or cells: human subjects, in vivo (clinical pharmacology)", "T3 sequence (P10632 1-490)": "T2 sequence (P10632 1-490)", "assay": "Drug-drug interaction study, cocktail approach: CYP2C8 substrate", "conditions": "in vivo"}, "in vivo": {"assay": "in vivo", "conditions": "dog", "source_text": "as §1"}, "[10]": {"assay": "Clinical pharmacokinetics (population PK analysis)", "conditions": "for dose dependence of exposure (Cmax and AUC): repeat once-daily dosing, 30 to 480 mg"}, "[11]": {"assay": "In vivo rat (bone marrow) micronucleus assay"}}, "note": "pIC50: −log10 of the molar value. Entries after “also recorded” stand apart in the source; their conditions may differ."}
{"smiles": "CNC(=O)c1ccc(N2C(=S)N(c3cnc(C#N)c(C(F)(F)F)c3)C(=O)C23CCC3)cc1F", "note": "[apalutamide, 4-[7-(6-cyano-5-trifluoromethylpyridin-3-yl)-8-oxo-6-thioxo-5,7-diazaspiro[3.4]oct-5-yl]-2-fluoro-N-methylbenzamide]", "values": [{"measurement": "turnover", "setting": "[1]", "value": "very low turnover"}, {"measurement": "fraction unbound", "setting": "Plasma protein binding", "value": 0.04}, {"measurement": "contribution of CYP3A4 in the metabolism", "setting": "CYP3A4; at steady-state", "value": 37, "unit": "%"}, {"measurement": "contribution of CYP3A4 in the metabolism", "setting": "CYP3A4; following single dose", "value": 13, "unit": "%"}, {"measurement": "substrate for BCRP, OATP1B1, and OATP1B3", "setting": "[2]", "value": "not BCRP, OATP1B1, and OATP1B3"}, {"measurement": "Metastasis Free Survival (MFS), median", "setting": "[3]", "value": 41, "unit": "months"}, {"measurement": "Metastasis Free Survival (MFS), median", "setting": "[3]; listed as Apalutamide", "value": 40.5, "unit": "months"}, {"measurement": "decrease in the risk of symptomatic progression", "setting": "[3]; compared with placebo", "value": 55, "unit": "%"}, {"measurement": "Progression-free Survival (PFS), median", "setting": "[3]; in vivo", "value": 40.5, "unit": "months"}, {"measurement": "Time to Metastasis (TTM), median", "setting": "[3]; in vivo", "value": 40.5, "unit": "months"}, {"measurement": "MFS HR, subgroup PSA doubling time of >6 months", "setting": "[3]; non-stratified analysis", "value": 0.30}, {"measurement": "MFS HR, subgroup PSA doubling time of months", "setting": "[3]; non-stratified analysis", "value": 0.29}, {"measurement": "MFS HR, total study population", "setting": "[3]; non-stratified analysis", "value": 0.30}, {"measurement": "decrease in the risk of distant metastasis or death", "setting": "[3]; vs placebo", "value": 72, "unit": "%"}, {"measurement": "genotoxicity, in vitro chromosome aberration", "setting": "[4]", "value": "not genotoxic"}, {"measurement": "inhibition of OCT2, OAT3 and MATEs", "setting": "[5]", "value": "cannot be excluded; also recorded: inhibit"}, {"measurement": "mutations in the bacterial reverse mutation (Ames) assay", "setting": "[6]", "value": "did not induce mutations"}, {"measurement": "well tolerated dose", "setting": "[7]; 13-weeks study, once daily oral gavage, male SD rats", "value": "up to 100 mg/kg/day"}, {"measurement": "dose with reproductive system findings (atrophy, aspermia/hypospermia, degeneration, hyperplasia or hypertrophy)", "setting": "[7]; male, Sprague Dawley, rat, in vivo", "value": "> 25", "unit": "mg/kg/day"}, {"measurement": "NOAEL at 13 weeks", "setting": "[7]; male, Sprague-Dawley, rat, in vivo", "value": 100, "unit": "mg/kg/day"}, {"measurement": "increase in cholesterol from controls", "setting": "[7]; rat, in vivo, 150 mg/kg/day", "value": "greater than 200%"}, {"measurement": "substrate for P-gp", "setting": "P-gp", "value": "substrates for P-gp"}, {"measurement": "tumor regression in human prostate cancer xenograft models", "setting": "[8]", "value": "partial or complete tumor regression"}, {"measurement": "pIC50", "setting": "[9]", "value": 4.86}, {"measurement": "changes in exposure to the CYP2C8 substrate", "setting": "CYP2C8", "value": "did not cause clinically meaningful changes"}, {"measurement": "increases in cholesterol compared to controls", "setting": "in vivo", "value": "up to 50%"}, {"measurement": "NOAEL at 13 weeks", "setting": "in vivo; male, Beagle", "value": 5, "unit": "mg/kg/day"}, {"measurement": "NOAEL at 28 days", "setting": "in vivo; male, Beagle", "value": 10, "unit": "mg/kg/day"}, {"measurement": "dose at which seizures necessitating humane euthanasia occurred", "setting": "in vivo; male, Beagle", "value": "≥ 25", "unit": "mg/kg/day"}, {"measurement": "dose with reproductive system findings", "setting": "in vivo; male, Beagle", "value": "> 2.5", "unit": "mg/kg/day"}, {"measurement": "AUC(0-t)", "setting": "in vivo; male, Beagle, 10 mg/kg/day", "value": 290, "unit": "µg·h/mL"}, {"measurement": "Cmax", "setting": "in vivo; male, Beagle, 10 mg/kg/day", "value": 13200, "unit": "ng/mL"}, {"measurement": "time to steady state", "setting": "[10]; 240 mg once daily", "value": 4, "unit": "weeks"}, {"measurement": "CL/F", "setting": "[10]; after single dosing", "value": 1.3, "unit": "L/h"}, {"measurement": "CL/F", "setting": "[10]; at steady-state after once-daily dosing", "value": 2.0, "unit": "L/h"}, {"measurement": "changes in Cmax and AUC with food", "setting": "[10]; high-fat meal vs fasting, healthy subjects", "value": "no clinically relevant changes"}, {"measurement": "Tmax", "setting": "[10]; human, plasma, po", "value": 2, "unit": "h"}, {"measurement": "bioavailability", "setting": "[10]; human, plasma, po", "value": "~100", "unit": "%"}, {"measurement": "differences in pharmacokinetics in specific populations", "setting": "[10]; mild or moderate renal impairment, mild or moderate hepatic impairment, age 18 to 94 years, race", "value": "No clinically significant differences"}, {"measurement": "dose dependence of exposure (Cmax and AUC)", "setting": "[10]", "value": "dose-proportional"}, {"measurement": "dose dependence of exposure (Cmax and AUC)", "setting": "[10]; listed as Apalutamide", "value": "increased proportionally"}, {"measurement": "genotoxicity, in vivo rat micronucleus assay", "setting": "[11]", "value": "not genotoxic"}, {"measurement": "genotoxicity, in vivo rat Comet assay", "setting": "In vivo rat Comet assay", "value": "not genotoxic"}]}
